In patent publication US9302999B2, “Substituted triazoles as herbicides” (E. I. DU PONT DE NEMOURS AND COMPANY, priority 2012, dated 2016):

What was measured:
Assay type in all cases: in vivo
[1] = system: barnyardgrass (Echinochloa crus-galli); assay: Test A pre-/postemergence: barnyardgrass; conditions: for Barnyardgrass plant response rating: Postemergence; for Plant response rating, Barnyardgrass: Preemergence
Summary of the method: (§1)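 Seeds were sown in loam/sand blend and sprayed preemergence (directed soil spray) and, simultaneously, postemergence at 2–10 cm, one- to two-leaf stage, using compounds in non-phytotoxic solvent with surfactant. After ~10 days in greenhouse, injury was rated visually versus untreated controls, 0 (no effect) to 100 (complete control).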

[2] = system: crabgrass, large (large crabgrass, Digitaria sanguinalis); assay: Test A pre-/postemergence: crabgrass, large; conditions: for Crabgrass, Large plant response rating: Postemergence; for Plant response rating, Crabgrass, Large: Preemergence
Summary of the method: as §1

[3] = system: foxtail, giant (giant foxtail, Setaria faberii); assay: Test A pre-/postemergence: foxtail, giant; conditions: for Foxtail, Giant plant response rating: Postemergence; for Plant response rating, Foxtail, Giant: Preemergence
Summary of the method: as §1

[4] = system: morningglory (Ipomoea spp.); assay: Test A pre-/postemergence: morningglory; conditions: for Morningglory plant response rating: Postemergence; for Plant response rating, Morningglory: Preemergence
Summary of the method: as §1

[5] = system: pigweed (Amaranthus retroflexus); assay: Test A pre-/postemergence: pigweed; conditions: for Pigweed plant response rating: Postemergence; for Plant response rating, Pigweed: Preemergence
Summary of the method: as §1

[6] = system: velvetleaf (Abutilon theophrasti); assay: Test A pre-/postemergence: velvetleaf; conditions: for Velvetleaf plant response rating: Postemergence; for Plant response rating, Velvetleaf: Preemergence
Summary of the method: as §1

[7] = system: wheat (Triticum aestivum); assay: Test A pre-/postemergence: wheat; conditions: for Wheat plant response rating: Postemergence; for Plant response rating, Wheat: Preemergence
Summary of the method: as §1

corn (Zea mays) = assay: Test A pre-/postemergence: corn; conditions: for Corn plant response rating: Postemergence; for Plant response rating, Corn: Preemergence
Summary of the method: as §1

rice (Oryza sativa) = assay: Test C flooded paddy test: rice; conditions: scale 0 to 100 (0 no effect, 100 complete control)
Summary of the method: (§2)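 2-leaf stage plants; pots flooded 3 cm above soil; compound applied into paddy water, depth maintained. Greenhouse 13–15 d. Visual rating vs controls, 0–100 (0 = no effect, 100 = complete control); dash = no result.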

[8] = system: sedge, umbrella (small-flower umbrella sedge, Cyperus difformis); assay: Test C flooded paddy test: sedge, umbrella; conditions: scale 0 to 100 (0 no effect, 100 complete control)
Summary of the method: as §2

[9] = system: ducksalad (Heteranthera limosa); assay: Test C flooded paddy test: ducksalad; conditions: scale 0 to 100 (0 no effect, 100 complete control)
Summary of the method: as §2

[10] = system: barnyardgrass (Echinochloa crus-galli); assay: Test C flooded paddy test: barnyardgrass; conditions: scale 0 to 100 (0 no effect, 100 complete control)
Summary of the method: as §2

[11] = 125 g ai/ha, 0 to 100 scale, 0 is no effect, 100 is complete control
[12] = 500 g ai/ha, visual rating on 0 to 100 scale (0 no effect, 100 complete control), approximately ten days
[13] = 125 g ai/ha, 0 to 100 scale (0 no effect, 100 complete control)
[14] = 500 g ai/ha, 0 to 100 scale, 0 is no effect, 100 is complete control
[15] = 125 g ai/ha, 0 to 100 scale where 0 is no effect and 100 is complete control
[16] = Flood (flooded paddy test), 125 g ai/ha, visual rating after 13 to 15 days
[17] = Flood (flooded paddy test), 250 g ai/ha, visual rating after 13 to 15 days

Cc1nn(-c2ccccc2I)nc1C(=O)c1cccc(C(F)(F)F)c1 [Compound 91]
30: Pigweed plant response rating [5, 12]
0: Barnyardgrass plant response rating [1, 11] | Plant response rating, Barnyardgrass [1, 13] | Plant response rating, Barnyardgrass [1, 14] | Crabgrass, Large plant response rating [2, 11] | Plant response rating, Crabgrass, Large [2, 13] | Plant response rating, Crabgrass, Large [2, 14] | Foxtail, Giant plant response rating [3, 11] | Plant response rating, Foxtail, Giant [3, 15] | Plant response rating, Foxtail, Giant [3, 14] | Morningglory plant response rating [4, 11] | Morningglory plant response rating [4, 12] | Plant response rating, Morningglory [4, 15] | Plant response rating, Morningglory [4, 14] | Plant response rating, Pigweed [5, 15] | Plant response rating, Pigweed [5, 14] | Velvetleaf plant response rating [6, 11] | Plant response rating, Velvetleaf [6, 15] | Plant response rating, Velvetleaf [6, 14] | Wheat plant response rating [7, 11] | Wheat plant response rating [7, 12] | Plant response rating, Wheat [7, 15] | Plant response rating, Wheat [7, 14] | Plant response rating, Corn (corn (Zea mays); [13]) | Plant response rating, Corn (corn (Zea mays); [14]) | Plant response rating, Rice (rice (Oryza sativa); [16]) | Plant response rating, Rice (rice (Oryza sativa); [17]) | Plant response rating, Rice (rice (Oryza sativa); Flood, 31 g ai/ha) | Plant response rating, Rice (rice (Oryza sativa); Flood, 62 g ai/ha) | Plant response rating, Sedge, Umbrella [8, 16] | Plant response rating, Sedge, Umbrella [8, 17] | Plant response rating, Sedge, Umbrella ([8]; Flood, 31 g ai/ha) | Plant response rating, Sedge, Umbrella ([8]; Flood, 62 g ai/ha) | Plant response rating, Ducksalad [9, 16] | Plant response rating, Ducksalad [9, 17] | Plant response rating, Ducksalad ([9]; Flood, 31 g ai/ha) | Plant response rating, Ducksalad ([9]; Flood, 62 g ai/ha) | Plant response rating, Barnyardgrass [10, 16] | Plant response rating, Barnyardgrass [10, 17] | Plant response rating, Barnyardgrass ([10]; Flood, 31 g ai/ha) | Plant response rating, Barnyardgrass ([10]; Flood, 62 g ai/ha)
10: Barnyardgrass plant response rating [1, 12] | Crabgrass, Large plant response rating [2, 12] | Foxtail, Giant plant response rating [3, 12] | Pigweed plant response rating [5, 11] | Velvetleaf plant response rating [6, 12] | Corn plant response rating (corn (Zea mays); [11]) | Corn plant response rating (corn (Zea mays); [12])

Cc1nn(-c2ccc(Br)cc2)nc1C(=O)c1cccc(C(F)(F)F)c1 [Compound 92]
40: Plant response rating, Crabgrass, Large [2, 14]
30: Crabgrass, Large plant response rating [2, 12] | Morningglory plant response rating [4, 12] | Pigweed plant response rating [5, 11]
20: Foxtail, Giant plant response rating [3, 12] | Plant response rating, Foxtail, Giant [3, 14] | Velvetleaf plant response rating [6, 11] | Velvetleaf plant response rating [6, 12]
0: Barnyardgrass plant response rating [1, 11] | Plant response rating, Barnyardgrass [1, 13] | Plant response rating, Barnyardgrass [1, 14] | Plant response rating, Morningglory [4, 15] | Plant response rating, Morningglory [4, 14] | Plant response rating, Pigweed [5, 15] | Plant response rating, Velvetleaf [6, 15] | Plant response rating, Velvetleaf [6, 14] | Wheat plant response rating [7, 11] | Plant response rating, Wheat [7, 15] | Plant response rating, Wheat [7, 14] | Plant response rating, Corn (corn (Zea mays); [13]) | Plant response rating, Corn (corn (Zea mays); [14]) | Plant response rating, Rice (rice (Oryza sativa); [16]) | Plant response rating, Rice (rice (Oryza sativa); [17]) | Plant response rating, Rice (rice (Oryza sativa); Flood, 31 g ai/ha) | Plant response rating, Rice (rice (Oryza sativa); Flood, 62 g ai/ha) | Plant response rating, Sedge, Umbrella [8, 16] | Plant response rating, Sedge, Umbrella [8, 17] | Plant response rating, Sedge, Umbrella ([8]; Flood, 31 g ai/ha) | Plant response rating, Sedge, Umbrella ([8]; Flood, 62 g ai/ha) | Plant response rating, Ducksalad [9, 16] | Plant response rating, Ducksalad [9, 17] | Plant response rating, Ducksalad ([9]; Flood, 31 g ai/ha) | Plant response rating, Ducksalad ([9]; Flood, 62 g ai/ha) | Plant response rating, Barnyardgrass [10, 16] | Plant response rating, Barnyardgrass [10, 17] | Plant response rating, Barnyardgrass ([10]; Flood, 31 g ai/ha) | Plant response rating, Barnyardgrass ([10]; Flood, 62 g ai/ha)
90: Pigweed plant response rating [5, 12]
10: Barnyardgrass plant response rating [1, 12] | Crabgrass, Large plant response rating [2, 11] | Plant response rating, Crabgrass, Large [2, 13] | Foxtail, Giant plant response rating [3, 11] | Plant response rating, Foxtail, Giant [3, 15] | Morningglory plant response rating [4, 11] | Plant response rating, Pigweed [5, 14] | Wheat plant response rating [7, 12] | Corn plant response rating (corn (Zea mays); [11]) | Corn plant response rating (corn (Zea mays); [12])
